Measurements reported in article PMC12044458 (ACS Omega, 2025).
Blank lines part the entries; values can stand above or below the compound they belong to.

Legend:
[1] = tested on: Poly(I:C) HMW (RNA, polymer, hypoxanthine (inosine) in place of every G of strand 1 (polyinosinic acid)) G/C; assay: UV melting; conditions: PBS, 0 mM Mg2+, compound concentration not in material, per base
[2] = tested on: Poly(I:C) Na^+ γ (RNA, polymer, hypoxanthine (inosine) in place of every G of strand 1 (polyinosinic acid); gamma-irradiated, possible strand breaks) G/C; assay: fluorescence titration of compound emission; conditions: PBS, 0 mM Mg2+, <1% DMSO, 5 µM compound, per base pair
[3] = tested on: Poly(I:C) Na^+ (RNA, polymer, hypoxanthine (inosine) in place of every G of strand 1 (polyinosinic acid)) G/C; assay: fluorescence titration of compound emission; conditions: PBS, <1% DMSO, 5 µM compound, per base pair
[4] = tested on: Poly(I:C) HMW (RNA, polymer, hypoxanthine (inosine) in place of every G of strand 1 (polyinosinic acid)) G/C; assay: fluorescence titration of compound emission; conditions: PBS, 0 mM Mg2+, <1% DMSO, 5 µM compound, per base pair
[5] = tested on: Poly(I:C) HMW fluorescein (RNA, polymer, hypoxanthine (inosine) in place of every G of strand 1 (polyinosinic acid)) G/C; assay: microscale thermophoresis; conditions: PBS-T, PBS-T pH 7.4, 200 nM labelled Poly(I:C)
[6] = tested on: Poly(I:C) Na^+ (RNA, polymer, hypoxanthine (inosine) in place of every G of strand 1 (polyinosinic acid)) G/C; assay: UV melting; conditions: PBS, 0 mM Mg2+, compound concentration not in material, per base
human RNase [7] = target: T1, human RNase; assay: microscale thermophoresis (MST); assay type: binding
T1 construct: his-tag-labeled human RNase

human RNase [8] = target: T1, human RNase; assay: microscale thermophoresis (MST), two-site fit; Kd2 =[…]; assay type: binding
[9] = tested on: Poly(I:C) HMW (RNA, polymer, hypoxanthine (inosine) in place of every G of strand 1 (polyinosinic acid)) G/C; assay: circular dichroism; conditions: PBS, 0 mM Mg2+, 100 µM compound and 100 µM Poly(I:C)
human RNase [10] = target: T1, human RNase; assay: microscale thermophoresis (MST), two-site fit; Kd2 =[…]; assay type: binding; remark: listed apart in the source
[11] = derived from two Tm (66 and 67)
[12] = 595 nm, 1:1 model, conditional constant, per base
[13] = 595 nm, 1:2 model, not a 1:1 Ka
[14] = derived from two Tm (65 and 65)
[15] = 540 nm, 1:1 model, conditional constant, per base
[16] = 540 nm, 1:2 model, not a 1:1 Ka

SMILES: COc1cccc2c1C(=O)c1c(O)c3c(c(O)c1C2=O)C[C@@](O)(C(=O)CO)C[C@@H]3O[C@H]1C[C@H](N)[C@H](O)[C@H](C)O1 [doxorubicin]
melting temperature shift (ΔTm) [1, 11]: -1 °C
Log(K) [2, 12]: 4.50 ± 0.72
Log(K) [2, 13]: 10.13 ± 1.23
Log(K) ([3]; 0 mM Mg2+, 595 nm, 1:1 model, conditional constant, per base): 5.03 ± 0.75
Log(K) ([3]; 0 mM Mg2+, 595 nm, 1:2 model, not a 1:1 Ka): 10.69 ± 1.14
Log(K) [4, 12]: 5.21 ± 0.75
Log(K) [4, 13]: 11.23 ± 1.10
Kd ([5]; ligand stock 0.25 mM, Kd above tested range): 251 ± 22 µM
melting temperature shift (ΔTm) [6, 14]: 0 °C
Kd (human RNase [7]): 4.8 ± 2 µM

SMILES: CN(C)[C@@H]1C(=O)C(C(N)=O)=C(O)[C@@]2(O)C(=O)C3=C(O)c4c(O)cccc4[C@@](C)(O)[C@H]3C[C@@H]12
Log(K) ([2]; 505 nm, 1:1 model, conditional constant, per base): 4.37 ± 0.56
Log(K) ([2]; 505 nm, 1:2 model, not a 1:1 Ka): 9.57 ± 0.71
Log(K) ([3]; 0 mM Mg2+, 549 nm, 1:1 model, conditional constant, per base): 4.64 ± 0.96
Log(K) ([3]; 0 mM Mg2+, 549 nm, 1:2 model, not a 1:1 Ka): 11.18 ± 0.99
Log(K) ([4]; 549 nm, 1:1 model, conditional constant, per base): 5.02 ± 1.05
Log(K) ([4]; 549 nm, 1:2 model, not a 1:1 Ka): 11.70 ± 1.37
Kd ([5]; ligand stock 1 mM): 448.1 ± 86.4 µM

SMILES: C[C@H]1c2cccc(O)c2C(=O)C2=C(O)[C@]3(O)C(=O)C(C(N)=O)=C(O)[C@@H](N(C)C)[C@@H]3[C@@H](O)[C@@H]21 [doxycycline]
Kd (human RNase [8]): 150 ± 52 nM

SMILES: CN(C)c1ccc(O)c2c1C[C@H]1C[C@H]3[C@H](N(C)C)C(O)=C(C(N)=O)C(=O)[C@@]3(O)C(O)=C1C2=O [minocycline]
melting temperature shift (ΔTm) [1, 11]: -1 °C
binding [9]: yes
melting temperature shift (ΔTm) [6, 14]: 0 °C
Kd (human RNase [10]): 509 ± 118 nM

SMILES: CN(C)[C@@H]1C(O)=C(C(N)=O)C(=O)[C@@]2(O)C(O)=C3C(=O)c4c(O)cccc4[C@@](C)(O)[C@H]3C[C@@H]12 [tetracycline]
Kd (human RNase [7]): 24.5 µM

melting temperature shift (ΔTm) ([1]; derived from two Tm (67 and 67)): 0 °C
Log(K) [2, 15]: 4.14 ± 0.57
Log(K) [2, 16]: 10.39 ± 1.8
Log(K) ([3]; 0 mM Mg2+, 540 nm, 1:2 model, not a 1:1 Ka): 9.85 ± 0.99
Log(K) ([3]; 10 mM Mg2+ (MgSO4), 537 nm, 1:1 model, conditional constant, per base): 5.39 ± 0.96
Log(K) [4, 15]: 4.62 ± 0.3
Log(K) [4, 16]: 11.34 ± 1.81
Kd ([5]; ligand stock 1 mM): 366.2 ± 74.9 µM
melting temperature shift (ΔTm) ([6]; derived from two Tm (64 and 65)): -1 °C
SMILES: C[C@H]1c2cccc(O)c2C(O)=C2C(=O)[C@]3(O)C(O)=C(C(N)=O)C(=O)[C@@H](N(C)C)[C@@H]3[C@@H](O)[C@@H]21
